These results are taken from PMC10692386 (Acta Pharmaceutica Sinica. B, 2023).

Data set [1] can be described thus: Cytotoxicity in mock-infected MT-4 cell cultures. In kind it is cell-based. As to conditions: human, mock-infected MT-4 cells.
In data set [2] the test system is WT HIV-1. As to the kind of experiment: Anti-HIV-1 activity in MT-4 cells infected with HIV-1. In kind it is cell-based. The note with it: for EC50: Human immunodeficiency virus 1, MT4; for SI: selectivity index, the ratio of CC50/EC50, WT HIV-1.

The structures appear in SMILES notation. A value given as a limit tells only on which side of the number the result lay.

Take `Cc1cc(Oc2c(C(F)(F)F)ccn(Cc3n[nH]c(=O)n3C)c2=O)c2cccc(F)c2n1` [7aa]: the midpoint of cytotoxicity in data set [1], the CC50, lay at 220 ± 44.4 µM. Further, in data set [2], the EC50 was > 220 µM and the SI is reported as <1.
For `Cc1cc(Oc2c(C(F)(F)F)ccn(Cc3n[nH]c(=O)n3C)c2=O)c2cccc(C)c2n1` [7ac], in that order: 151 ± 27.9 µM, > 151 µM and <1.
Compound `Cc1cc(Oc2c(C(F)(F)F)ccn(Cc3n[nH]c(=O)n3C)c2=O)c2cc(F)c(Cl)cc2n1` [7ae] came in with a CC50 in data set [1] of 92.9 ± 44 µM. Also, in data set [2], it took 11.7 ± 9.1 µM to reach a half-maximal effect (EC50) and the SI is listed as 7.92.
For `Cc1cc(Oc2c(C(F)(F)F)ccn(Cc3n[nH]c(=O)n3C)c2=O)c2c(Cl)c(F)ccc2n1` [7af], in that order: 81.5 ± 11.7 µM, 33.3 ± 9.61 µM and 2.45.
For the compound `Cn1c(Cn2ccc(C(F)(F)F)c(Oc3cnc4ccccc4c3)c2=O)n[nH]c1=O` [7ag], in data set [1], the CC50 is > 250 µM. For the same compound, in data set [2], the EC50 was > 250 µM and the SI is >1.
With `Cn1c(Cn2ccc(C(F)(F)F)c(Oc3ccc4ncccc4c3)c2=O)n[nH]c1=O` [7ah], the 50% cytotoxic concentration (CC50) in data set [1] was > 299 µM. For the same compound, in data set [2], the response was half-maximal at 252 ± 5.75 µM (EC50) and the SI is >1.
On to `Cn1c(Cn2ccc(C(F)(F)F)c(Oc3ccc4cnccc4c3)c2=O)n[nH]c1=O` [7ai], for which the CC50 in data set [1] was > 299 µM. Also, in data set [2], the concentration for a half-maximal effect (EC50) was determined as 11.2 ± 2.83 µM and the SI is given as >27.
`Cn1c(Cn2ccc(C(F)(F)F)c(Oc3cc(Cl)c4ncccc4c3)c2=O)n[nH]c1=O` [7ak] displayed a CC50 in data set [1] of 192 ± 42.9 µM. Further, in data set [2], the EC50 is > 192 µM and the SI is <1.
With `Cn1c(Cn2ccc(C(F)(F)F)c(Oc3ccc4nc(Cl)ccc4c3)c2=O)n[nH]c1=O` [7al], in data set [1], the 50% cytotoxic concentration (CC50) worked out at 172 ± 44.9 µM. Moreover, in data set [2], the half-maximal effective concentration (EC50) is 46.7 ± 12.5 µM and the SI was found to be 3.68.
For `Cn1c(Cn2ccc(C(F)(F)F)c(Oc3ccc4cccnc4c3Br)c2=O)n[nH]c1=O` [7am], in that order: 164 ± 25.5 µM, > 164 µM and <1.
`Cn1c(Cn2ccc(C(F)(F)F)c(Oc3cccnc3Cl)c2=O)n[nH]c1=O` [7b]: in data set [1], the midpoint of cytotoxicity, the CC50, lay at 290 ± 24.1 µM. Also, in data set [2], a half-maximal effect (EC50) was put at 4.27 ± 0.75 µM and the SI was 67.97.
For `Cn1c(Cn2ccc(C(F)(F)F)c(Oc3ccc(Cl)nc3)c2=O)n[nH]c1=O` [7c], in that order: > 311 µM, 35.6 ± 10.3 µM and >9.
For the compound `Cn1c(Cn2ccc(C(F)(F)F)c(Oc3cnc(Cl)c(Cl)c3)c2=O)n[nH]c1=O` [7d], the CC50 in data set [1] was determined as 248 ± 28.2 µM. In data set [2], the EC50 was 2.02 ± 0.88 µM and the SI is given as 122.98.
In turn, `Cn1c(Cn2ccc(C(F)(F)F)c(Oc3cccnc3Br)c2=O)n[nH]c1=O` [7f] came in with a CC50 in data set [1] of 270.9 ± 1.77 µM. Moreover, in data set [2], the EC50 was 4.44 ± 0.94 µM and the SI stood at 61.07.
Turning to `Cn1c(Cn2ccc(C(F)(F)F)c(Oc3ccc(Br)nc3)c2=O)n[nH]c1=O` [7g], the CC50 in data set [1] is > 280 µM. Besides, in data set [2], a half-maximal effect (EC50) was put at 197 ± 58.9 µM and the SI was >1.
For `Cc1ncccc1Oc1c(C(F)(F)F)ccn(Cc2n[nH]c(=O)n2C)c1=O` [7i], in that order: > 328 µM, 6.76 ± 1.07 µM and >49.
Turning to `Cc1ccc(Oc2c(C(F)(F)F)ccn(Cc3n[nH]c(=O)n3C)c2=O)cn1` [7j], the CC50 in data set [1] was > 328 µM. Further, in data set [2], the concentration for a half-maximal effect (EC50) turned out to be 21.1 ± 5 µM.
For the compound `Cc1ccncc1Oc1c(C(F)(F)F)ccn(Cc2n[nH]c(=O)n2C)c1=O` [7k], the half-maximal cytotoxic concentration (CC50) in data set [1] is > 328 µM. Besides, in data set [2], it took 1.53 ± 0.25 µM to reach a half-maximal effect (EC50) and the SI is >214.
In turn, `Cc1ccc(Oc2c(C(F)(F)F)ccn(Cc3n[nH]c(=O)n3C)c2=O)c(Br)n1` [7l] returned a half-maximal cytotoxic concentration (CC50) in data set [1] of 253 ± 16.8 µM. Besides, in data set [2], the EC50 is > 250 µM and the SI is <1.
For the compound `Cc1ccc(Oc2c(C(F)(F)F)ccn(Cc3n[nH]c(=O)n3C)c2=O)c(C)n1` [7m], the CC50 in data set [1] was > 250 µM. Further, in data set [2], the EC50 is > 250 µM and the SI is recorded as <1.
In data set [1], `CCc1nc(C)ccc1Oc1c(C(F)(F)F)ccn(Cc2n[nH]c(=O)n2C)c1=O` [7n] displayed a CC50 of 299 ± 3.74 µM. For the same compound, the concentration for a half-maximal effect (EC50) in data set [2] is > 250 µM.
Turning to `Cc1cc(Oc2c(C(F)(F)F)ccn(Cc3n[nH]c(=O)n3C)c2=O)cnc1Br` [7o], the CC50 in data set [1] is > 272 µM. Moreover, in data set [2], a half-maximal effect (EC50) was put at 1.27 ± 0.36 µM and the SI is >214.
In the case of `Cc1cc(Oc2c(C(F)(F)F)ccn(Cc3n[nH]c(=O)n3C)c2=O)cnc1F` [7p], the CC50 in data set [1] is > 250 µM. Further, it took 1.46 ± 0.54 µM to reach a half-maximal effect in data set [2] (EC50).
In the case of `COc1cncc(Oc2c(C(F)(F)F)ccn(Cc3n[nH]c(=O)n3C)c2=O)c1` [7q], in data set [1], the CC50 is > 250 µM. Moreover, in data set [2], the concentration giving a half-maximal response (EC50) worked out at 7.33 ± 5.03 µM and the SI is >43.
For `Cn1c(Cn2ccc(C(F)(F)F)c(Oc3ccc(C(F)(F)F)nc3)c2=O)n[nH]c1=O` [7r], in data set [1], the cytotoxic concentration (CC50) is > 250 µM. Also, in data set [2], the EC50 was > 250 µM and the SI is on record as >1.
For `Cn1c(Cn2ccc(C(F)(F)F)c(Oc3cccnc3)c2=O)n[nH]c1=O` [7s], the CC50 in data set [1] was > 367 µM. For the same compound, in data set [2], the response was half-maximal at 1.22 ± 0.24 µM (EC50) and the SI is >278.
`Cc1ncc(Oc2c(C(F)(F)F)ccn(Cc3n[nH]c(=O)n3C)c2=O)cn1` [7t]: the CC50 in data set [1] was > 250 µM. In addition, in data set [2], the 50% effective concentration (EC50) was > 250 µM and the SI was >1.
For the compound `Cn1c(Cn2ccc(C(F)(F)F)c(Oc3cccc4ncccc34)c2=O)n[nH]c1=O` [7v], the midpoint of cytotoxicity in data set [1], the CC50, lay at 278 ± 18.6 µM. In addition, in data set [2], the EC50 worked out at 4.48 ± 1.24 µM and the SI came out at 62.10.
The like results for `Cn1c(Cn2ccc(C(F)(F)F)c(Oc3cccc4ccncc34)c2=O)n[nH]c1=O` [7x] were, in that order, > 299 µM, 1.23 ± 0.28 µM and >244.
For the compound `Cn1c(Cn2ccc(C(F)(F)F)c(Oc3cccc4nccnc34)c2=O)n[nH]c1=O` [7y], the CC50 in data set [1] worked out at 220 ± 35.5 µM. In data set [2], the EC50 turned out to be 8.07 ± 1.41 µM and the SI stood at 27.30.
In turn, `Cc1cc(Oc2c(C(F)(F)F)ccn(Cc3n[nH]c(=O)n3C)c2=O)c2ccccc2n1` [7z] displayed a CC50 in data set [1] of 233 ± 32.1 µM. Further, in data set [2], the EC50 was > 233 µM and the SI is given as <1.
